In brackets after ≈: the same amount, converted by molar mass.
Legend:
Klebsiella aerogenes = experiment: Antibacterial activity against Klebsiella aerogenes 1522E; format: functional
Escherichia coli [1] = experiment: Antibacterial activity against Escherichia coli DC2; format: functional
Staphylococcus aureus [2] = experiment: Antibacterial activity against Staphylococcus aureus SG511; format: functional
Salmonella typhimurium = experiment: Antibacterial activity against Salmonella Typhimurium; format: functional, Salmonella enterica subsp. enterica serovar Typhimurium; details: Salmonella enterica
Enterobacter cloacae = experiment: Antibacterial activity against Enterobactor cloacae 1321E; format: functional
Escherichia coli [3] = experiment: Antibacterial activity against Escherichia coli TEM; format: functional
Staphylococcus aureus [4] = experiment: Antibacterial activity against Staphylococcus aureus 285; format: functional
Pseudomonas aeruginosa = experiment: Antibacterial activity against Pseudomonas aeruginosa 9027; format: functional
Streptococcus pyogenes [5] = experiment: Antibacterial activity against Streptococcus pyogenes 77A; format: functional
Streptococcus pyogenes [6] = experiment: Antibacterial activity against Streptococcus pyogenes 308A; format: functional

SMILES | MIC (Klebsiella aerogenes) [µg/mL] | MIC (Escherichia coli [1]) [µg/mL] | MIC (Staphylococcus aureus [2]) [µg/mL] | MIC (Salmonella typhimurium) [µg/mL] | MIC (Enterobacter cloacae) [µg/mL] | MIC (Escherichia coli [3]) [µg/mL] | MIC (Staphylococcus aureus [4]) [µg/mL] | MIC (Pseudomonas aeruginosa) [µg/mL] | MIC (Streptococcus pyogenes [5]) [µg/mL] | MIC (Streptococcus pyogenes [6]) [µg/mL]
CO/N=C(\CNS(C)(=O)=O)[C@@H]1C[C@H](SC2=C(C(=O)O)N3C(=O)[C@H]([C@@H](C)O)[C@H]3[C@H]2C)CN1 | 0.781 (≈ 1.64 µM) | 0.195 (≈ 0.409 µM) | 0.195 (≈ 0.409 µM) | 0.781 (≈ 1.64 µM) | 0.391 (≈ 0.82 µM) | 0.195 (≈ 0.409 µM) | 0.391 (≈ 0.82 µM) | 12.5 (≈ 26.2 µM) | 0.098 (≈ 0.206 µM) | 0.098 (≈ 0.206 µM)
CO/N=C(\CNC(N)=O)[C@@H]1C[C@H](SC2=C(C(=O)O)N3C(=O)[C@H]([C@@H](C)O)[C@H]3[C@H]2C)CN1 | 0.195 (≈ 0.442 µM) | 0.049 (≈ 0.111 µM) | 0.098 (≈ 0.222 µM) | 0.098 (≈ 0.222 µM) | 0.049 (≈ 0.111 µM) | 0.049 (≈ 0.111 µM) | 0.195 (≈ 0.442 µM) | 1.56 (≈ 3.53 µM) | 0.013 (≈ 0.0294 µM) | < 0.01
CCNS(=O)(=O)NC/C(=N\OC)[C@@H]1C[C@H](SC2=C(C(=O)O)N3C(=O)[C@H]([C@@H](C)O)[C@H]3[C@H]2C)CN1 | 0.049 (≈ 0.0969 µM) | 0.013 (≈ 0.0257 µM) | 0.049 (≈ 0.0969 µM) | 0.025 (≈ 0.0494 µM) | 0.025 (≈ 0.0494 µM) | 0.049 (≈ 0.0969 µM) | 0.098 (≈ 0.194 µM) | 3.12 (≈ 6.17 µM) | < 0.01 | < 0.01
CO/N=C(\CN)[C@@H]1C[C@H](SC2=C(C(=O)O)N3C(=O)[C@H]([C@@H](C)O)[C@H]3[C@H]2C)CN1 | 0.195 (≈ 0.489 µM) | 0.049 (≈ 0.123 µM) | 0.098 (≈ 0.246 µM) | 0.098 (≈ 0.246 µM) | 0.098 (≈ 0.246 µM) | 0.195 (≈ 0.489 µM) | 0.195 (≈ 0.489 µM) | 3.12 (≈ 7.83 µM) | < 0.01 | < 0.01
CO/N=C(\CNS(=O)(=O)N(C)C)[C@@H]1C[C@H](SC2=C(C(=O)O)N3C(=O)[C@H]([C@@H](C)O)[C@H]3[C@H]2C)CN1 | 0.391 (≈ 0.773 µM) | 0.098 (≈ 0.194 µM) | 0.195 (≈ 0.386 µM) | 0.195 (≈ 0.386 µM) | 0.195 (≈ 0.386 µM) | 0.098 (≈ 0.194 µM) | 0.195 (≈ 0.386 µM) | 6.25 (≈ 12.4 µM) | 0.013 (≈ 0.0257 µM) | 0.025 (≈ 0.0494 µM)
